We go through 6 compounds from PMC9569768, “Selective Anti-Leishmanial Strathclyde Minor Groove Binders Using an N-Oxide Tail-Group Modification” (International Journal of Molecular Sciences, 2022).

Values after ≈ are worked out from the molar mass of the structure shown. Where two headings read alike, the source gives them in different places. Marks after values point to notes of the source that are not given here.

For one series, the system named is genomic DNA from salmon. Nature of the series: UV-Vis DNA thermal melting, genomic DNA. The conditions noted are these: 10 µM S-MGB, 0.02 mg/mL salmon gDNA. The series is classed as binding. The method, then:
Salmon DNA (D1626, Sigma-Aldrich) at 1 mg/mL in 1 mM phosphate buffer (pH 7.4) containing 0.27 mM KCl and 13.7 mM NaCl (P4417, Sigma-Aldrich) was annealed at 90 °C for 10 min. MGB-BP-3 at 10 mM in DMSO was diluted with the same phosphate buffer, and combined with the salmon DNA stock, to yield a single sample with 10 µM S-MGB and 0.02 mg/mL gDNA in 1 mM phosphate buffer containing 0.27 mM KCl and 13.7 mM NaCl. Control samples containing only MGB-BP-3 or gDNA were prepared, respectively. The samples were melted at a rate of 0.5 °C/min from 45 °C to 90 °C, with spectra recorded at 260 nm on a UV-1900 UV-vis spectrophotometer fitted with a Peltier temperature controller (Shimadzhu, Kyoto, Japan), using LabSolutions (Tm Analysis) software. The melting temperatures (Tms) of the MGB-BP-3:DNA complexes were determined by fitting a sigmoidal function using a Boltzmann distribution in OriginPro. Two independent experiments were carried out and the values quoted with an error no worse than ±0.5 °C.

The subject of series [1] is DNA sequence 5′-CGCATATATGCG-3′. The experiment in a line: Native mass spectrometry of DNA binding stoichiometry. Particulars: 9 μM DNA, 100 μM S-MGB, 150 mM ammonium acetate. The method, then: DNA sample preparation: The DNA oligonucleotide sequence 5′-[…]-3′ was purchased in lyophilised form from Alpha DNA, Montreal, Canada, and used without further purification; its purity was assessed via NMR. We prepared 100 μM stock solutions of DNA with 150 mM ammonium acetate buffer solution (Fisher Scientific, Loughborough, Leicestershire, UK) and 2 mM potassium chloride solution (Fisher Scientific, Loughborough, Leicestershire, UK). This solution was annealed at 90 degrees for 10 min and allowed to cool to room temperature. A total of 10 mM S-MGB stock in 100% DMSO (Sigma-Aldrich, St. Louis, MO, USA) was diluted to a 1 mM S-MGB solution with 150 mM ammonium acetate. The final samples were prepared from this solution to yield final concentrations of 9 μM DNA, 100 μM KCl, 100 μM S-MGB and 1% DMSO. DNA solutions containing no S-MGB included 1% DMSO and were used as controls.
Mass spectrometry measurements: Native mass spectrometry experiments were carried out using a Synapt G2Si instrument (Waters, Manchester, UK) with a nanoelectrospray ionisation source (nESI). Mass calibration was performed using a separate infusion of NaI cluster ions. […]

The test system of series [2] is L. donovani LV82 luc1 (MHOM/ET/67:LV82). The experiment in a line: Anti-Leishmania assay, intracellular amastigotes in bone marrow-derived macrophages, luciferase readout. The series is classed as cell-based. Particulars: read-out: L. donovani IC50. The protocol:
The compounds were screened in vitro for their antileishmanial activity against the intracellular amastigote stage. Briefly, bone marrow-derived macrophages (0.5 × 10^5 cells per well) were infected using a 20:1 host cell: parasite ratio with luciferase-expressing L. donovani LV82 luc1 (MHOM/ET/67:LV82). […] Amphotericin B solution was used as a positive control and was used at a starting concentration of 1 μM. The medium was removed from each sample at 72 h post-infection and replaced with 150 μL luciferin solution (150 μg mL^−1 luciferin in serum-free medium). The amount of bioluminescent signal emitted/well was determined and used to calculate the mean suppression in the bioluminescent signal for each test sample compared to the mean control values. The EC50 values were calculated and the mean EC50 was calculated from the three separate experiments.

The subject of a further series is S. aureus ATCC 43300. The experiment in a line: Antibacterial assay (MIC, broth dilution). The series is classed as cell-based. Particulars: Staphylococcus aureus, read-out: S. aureus MIC. The method, then: The inhibition of bacterial growth was determined by OD600, using a Tecan Infinite M Nano plate reader. The percentage of growth inhibition was calculated for each well, using the negative control (medium only) and positive control (bacteria without inhibitors) on the same plate. […] Each MIC determination was carried out in triplicate, on separate days.
In general terms: Broth dilution looks for growth in wells or tubes with falling amounts of substance.

Another series deals with d(5′-CGCATATATGCG-3′). Nature of the series: UV-Vis DNA thermal melting, short DNA oligo. The conditions noted are these: 2 MGB: 1 DNA, 10 mM PBS pH 7.4, 50 mM NaCl. The series is classed as binding. The method, then: The DNA oligonucleotide sequence 5′-[…]-3′ was purchased in lyophilised form from Alpha DNA, Canada, and used without further purification, with purity assessed via NMR. The DNA oligomer was melted at a rate of 0.5 °C/min in 10 mM PBS buffer solution (pH 7.4) with 50 mM NaCl on a Cary 300 BIO UV–visible spectrophotometer fitted with a Peltier temperature controller. The programs were set and the data were processed using Cary WinUV software. The duplex oligomer was made to a concentration of 6 × 10^−6 M, heated to 90 °C and allowed to cool to room temperature unaided. This was mixed with sufficient S-MGB to give the appropriate ratio of 2 MGB: 1 DNA. For the reference melting temperature, no S-MGB was added. Samples were heated from 10 °C to 90 °C and cooled from 90 °C to 10 °C, with the spectra being recorded at 260 nm during both of these cycles. The melting temperatures (Tm) of the duplex oligomers were determined by fitting a sigmoidal function using a Boltzmann distribution in OriginPro.

Series [3] concerns bloodstream form T. b. brucei (Lister 427). Details: method as in PMID 34447938. The conditions noted are these: data previously reported ref 19; cited from earlier work.
Series [4] deals with T1, hERG ion channel (Homo sapiens, UniProt Q12809).
T1 construct: expressed in transfected cells; host or cells: HEK293 cells (gift of Dr. J. Mitcheson, University of Leicester)
T1 sequence (Q12809 whole entry): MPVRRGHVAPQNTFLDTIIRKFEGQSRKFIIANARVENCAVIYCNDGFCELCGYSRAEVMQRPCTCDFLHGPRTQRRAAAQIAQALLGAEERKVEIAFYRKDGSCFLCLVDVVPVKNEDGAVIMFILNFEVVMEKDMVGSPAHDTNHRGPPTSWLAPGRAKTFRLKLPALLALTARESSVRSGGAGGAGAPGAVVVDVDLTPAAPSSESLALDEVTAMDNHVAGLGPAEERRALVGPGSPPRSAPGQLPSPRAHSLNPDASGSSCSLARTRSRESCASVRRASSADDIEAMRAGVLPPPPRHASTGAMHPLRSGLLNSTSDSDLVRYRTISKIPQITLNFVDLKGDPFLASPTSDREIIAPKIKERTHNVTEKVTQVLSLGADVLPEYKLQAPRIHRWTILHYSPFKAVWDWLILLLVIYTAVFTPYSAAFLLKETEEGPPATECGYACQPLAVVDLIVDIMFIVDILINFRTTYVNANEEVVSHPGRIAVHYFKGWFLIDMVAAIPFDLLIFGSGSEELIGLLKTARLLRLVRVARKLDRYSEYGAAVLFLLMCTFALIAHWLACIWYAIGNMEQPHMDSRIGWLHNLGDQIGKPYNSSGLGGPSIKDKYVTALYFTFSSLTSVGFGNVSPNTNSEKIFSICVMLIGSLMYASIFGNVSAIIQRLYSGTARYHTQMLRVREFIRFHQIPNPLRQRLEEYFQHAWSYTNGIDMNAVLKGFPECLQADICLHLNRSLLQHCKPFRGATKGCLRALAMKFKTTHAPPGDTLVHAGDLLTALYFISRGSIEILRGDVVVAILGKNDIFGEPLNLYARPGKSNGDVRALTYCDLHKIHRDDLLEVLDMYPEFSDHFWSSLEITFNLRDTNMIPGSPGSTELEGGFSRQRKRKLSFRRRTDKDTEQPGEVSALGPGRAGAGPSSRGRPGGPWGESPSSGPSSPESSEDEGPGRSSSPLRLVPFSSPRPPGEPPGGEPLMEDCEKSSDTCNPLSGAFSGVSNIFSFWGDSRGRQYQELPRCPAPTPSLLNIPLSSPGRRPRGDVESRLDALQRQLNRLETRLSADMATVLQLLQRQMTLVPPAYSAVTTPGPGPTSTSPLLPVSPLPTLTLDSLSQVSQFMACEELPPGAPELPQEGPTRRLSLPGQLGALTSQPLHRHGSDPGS
Details: method as in PMID 22948178. Particulars: compounds at 10 μM; data previously reported ref 20; cited from earlier work.

Series [5] deals with bloodstream form T. b. brucei (Lister 427). Nature of the series: Anti-Trypanosoma alamarBlue assay. The series is classed as cell-based. The protocol:
The bloodstream form T. b. brucei (Lister 427) was cultured in HMI-11 medium (Gibco) supplemented with 10% heat-inactivated FBS (Gibco), at 37 °C in a humidified 5% CO2 environment.
The EC50 values were determined using the in vitro alamarBlue assay. T. b. brucei parasites (2 × 10^4 cells per mL), were seeded into serial dilutions of the test compounds to a final volume of 200 μL and incubated for 48 h, after which 20 μL of 0.49 mM resazurin dye (Sigma-Aldrich, St. Louis, MO, USA) was added and the cells were incubated for a further 24 h. The reduction of resazurin was measured using a fluorimeter (FLUOstar Optima, BMG Labtech, Ortenberg, Germany) at 544 nm excitation and 590 nm emission wavelengths. The EC50 values were determined using Prism 5 software (GraphPad, San Diego, CA, USA). All experiments were carried out on at least three independent occasions.
(The colour change of resazurin is a common sign of viable cells or microbes.)

For series [6], the target named is T1, hERG ion channel. Nature of the series: hERG cell-binding assay, [3H]-astemizole displacement in hERG-transfected HEK293 cells. Particulars: compounds at 10 μM. The method, then: hERG-transfected HEK293 cells were kindly gifted by Dr. J. Mitcheson, University of Leicester. The cell cultures were maintained in Gibco Dulbecco’s Modified Eagle Medium (D-MEM) + GlutaMAX1^TM medium supplemented with 10% foetal bovine serum ([…]), 1% penicillin–streptomycin and 0.8% Geneticin in a Sanyo humidified incubator (37 °C, 5% CO2). Once at 80–90% confluency, the cells were lifted using a PBS-based, enzyme-free Cell Dissociation Buffer. The cell suspension was counted using a Bright Line Haemocytometer and centrifuged at 1000 rpm for 5 min, and the supernatant discarded. The pellet was resuspended in ice-cold Tris-HCl, pH 7.4 (20 mM), with 1% phenylmethylsulfonyl fluoride (PMSF). […]
[^3H]-Astemizole binding in hERG-transfected HEK293 cells was performed in a […] total volume according to the following conditions: cells (~200,000 cells per assay tube, […]), [^3H]- astemizole (0.5 nM, […]), incubation buffer (10 mM HEPES, pH 7.4, 130 mM NaCl, 5 mM KCl, 0.8 mM MgCl2, 10 mM glucose, 0.1% BSA, 100 mL) for the total binding or drug compound ([…], 100 mL) for the single-point assay. Non-specific binding was determined using nonradiolabelled astemizole ([…], 100 mL). […] The radioactivity retained on the filters (pre-soaked in 0.5% PEI) was measured via counting in scintillation fluid (4 mL, Tri-Carb 1500 Packard; Emulsifier-Safe).
(hERG is a cardiac potassium channel; its block is linked to QT prolongation.)

The mark [7] stands for this setting: LUC1, intracellular amastigotes, 72 h post-infection, mean of 3 experiments.

Consider `Cn1cc(NC(=O)c2cc(NC(=O)c3ccc(/C=C/c4cnc5ccccc5c4)cc3)cn2C)cc1C(=O)NCCN1CCOCC1` [S-MGB-3, 1-methyl-N-[1-methyl-5-({[2-(4-morpholinyl)ethyl]amino}carbonyl)-1H-pyrrol-3-yl]-4-({4-[(E)-2-(3-quinolinyl)ethenyl]benzoyl}amino)-1H-pyrrole-2-carboxamide], for which, in the series on genomic DNA from salmon, the Tm increase is 12.6 °C. Moreover, the “Melting Temperature of gDNA + S-MGB complex” value in the series with genomic DNA from salmon (gDNA alone 69.6 ± 0.3) came out at 82.2 ± 0.1 °C. Further, the “binding stoichiometry to double-stranded DNA by nMS” value in series [1] was “selectively bind to double-stranded DNA as a dimer only”; in series [1] (listed as S-MGB-BP-3), “bind 2xS-MGB molecules”.

One may read the IC50 as the midpoint of a concentration-inhibition curve. The MIC is the least concentration at which growth counts as inhibited. With `N=C(N)c1ccc(OCCCCCOc2ccc(C(=N)N)cc2)cc1` [compound 1], the IC50 in series [2] (setting [7]) is 3.5 ± 0.1 µM. Besides, the MIC in the series on S. aureus ATCC 43300 (ATCC43300, 18 h, 37 °C) was 50 µM (≈ 17 µg/mL). The “ΔTm, DNA melting temperature increase” value with d(5′-CGCATATATGCG-3′) came out at 11 °C. Moreover, the “T. b. brucei MIC” value in series [3] is on record as 0.78 * μM.

Consider `N=C(N)c1ccc(-c2cc3ccc(C(=N)N)cc3[nH]2)cc1` [compound 2], for which the IC50 in series [2] (setting [7]) was 5.7 ± 0.4 µM. Further, the MIC in the series on S. aureus ATCC 43300 (ATCC43300, 18 h, 37 °C) worked out at 3.12 µM (≈ 0.865 µg/mL). The “ΔTm, DNA melting temperature increase” value with d(5′-CGCATATATGCG-3′) was determined as 15 °C. Moreover, the “T. b. brucei MIC” value in [3] is 1.56 * μM. Moreover, the “hERG % displacement of [3H]-astemizole” value at hERG ion channel [4] is 58 ** %.

Regarding `Cn1cc(NC(=O)c2cc(NC(=O)c3cc(NC=O)cn3C)cn2C)cc1C(=O)NCCC(=N)N` [compound 3], the IC50 in series [2] (LUC1, 72 h) was determined as 5.1 ± 0.7 µM. The MIC in the series with S. aureus ATCC 43300 (ATCC43300, 18 h) worked out at 0.78 µM (≈ 0.376 µg/mL). Besides, in the series on d(5′-CGCATATATGCG-3′), the “ΔTm, DNA melting temperature increase” value worked out at 17 °C. Moreover, the “T. b. brucei MIC” value in [3] was <0.19 * μM. For the same compound, the “hERG % displacement of [3H]-astemizole” value at hERG ion channel [4] is reported as 64 ** %.

With `COc1cccc(/C=C/c2ccc(C(=O)Nc3cc(C(=O)Nc4cc(C(=O)NCC[N+]5([O-])CCOCC5)n(C)c4)n(C)c3)cc2)c1` [compound 206], in series [2] (setting [7]), the IC50 came to 2.4 ± 0.3 µM. The MIC in series [5] was 6.25 µM (≈ 3.92 µg/mL); in the series on S. aureus ATCC 43300 (ATCC43300, 18 h, 37 °C), more than 100 µM. Further, the “hERG % displacement of [3H]-astemizole” value at hERG ion channel [6] was 44%. The “ΔTm, DNA melting temperature increase” value in the series on d(5′-CGCATATATGCG-3′) came to 1 °C.

For `COc1ccc(/C=C/c2ccc(C(=O)Nc3cc(C(=O)Nc4cc(C(=O)NCC[N+]5([O-])CCOCC5)n(C)c4)n(C)c3)cn2)cc1` [compound 207], in series [2] (setting [7]), the IC50 is 3.1 ± 1 µM. For the same compound, the MIC is 12.5 µM (≈ 7.85 µg/mL) in series [5] and more than 100 µM with S. aureus ATCC 43300 (ATCC43300, 18 h, 37 °C). On hERG ion channel [6], the “hERG % displacement of [3H]-astemizole” value was determined as 45%. Further, the “ΔTm, DNA melting temperature increase” value with d(5′-CGCATATATGCG-3′) was 1 °C.
